# Measurements as given in ChEMBL document CHEMBL1811859, “Second-generation sulfonamide inhibitors of D-glutamic acid-adding enzyme: activity optimisation with conformationally rigid analogues of D-glutamic acid” (Eur J Med Chem, 2011).
# Experiments:
# [1] = test system: Streptococcus pneumoniae; test: Antimicrobial activity against Streptococcus pneumoniae D39 by broth dilution method; format: functional
# [2] = test system: Streptococcus pneumoniae; test: Antimicrobial activity against Streptococcus pneumoniae ATCC 33400 by broth dilution method; format: functional
# [3] = test system: Streptococcus pneumoniae; test: Antimicrobial activity against Streptococcus pneumoniae ATCC 49619 by broth dilution method; format: functional
# [4] = test system: Enterococcus hirae; test: Antimicrobial activity against Enterococcus hirae ATCC 9790 by broth dilution method; format: functional
# [5] = test system: Enterococcus faecium; test: Antimicrobial activity against Enterococcus faecium ATCC 19434 by broth dilution method; format: functional
# [6] = test system: Enterococcus faecalis; test: Antimicrobial activity against Enterococcus faecalis ATCC 29212 by broth dilution method; format: functional
# [7] = test system: Enterococcus faecalis; test: Antimicrobial activity against Enterococcus faecalis ATCC 19433 by broth dilution method; format: functional
# [8] = test system: Bacillus subtilis; test: Antimicrobial activity against Bacillus subtilis ATCC 6633 by broth dilution method; format: functional
# [9] = test system: Listeria monocytogenes; test: Antimicrobial activity against Listeria monocytogenes ATCC 14780 by broth dilution method; format: functional
# [10] = test system: Listeria innocua; test: Antimicrobial activity against Listeria innocua ATCC 33090 by broth dilution method; format: functional
# [11] = test system: Micrococcus luteus; test: Antimicrobial activity against Micrococcus luteus ATCC 9314 by broth dilution method; format: functional
# [12] = test system: Klebsiella pneumoniae; test: Antimicrobial activity against Klebsiella pneumoniae ATCC 13883 by broth dilution method; format: functional
# [13] = test system: Pseudomonas aeruginosa; test: Antimicrobial activity against Pseudomonas aeruginosa ATCC 27853 by broth dilution method; format: functional
# [14] = test system: Citrobacter freundii; test: Antimicrobial activity against Citrobacter freundii ATCC 8090 by broth dilution method; format: functional
# [15] = test system: Proteus mirabilis; test: Antimicrobial activity against Proteus mirabilis ATCC 29936 by broth dilution method; format: functional
# [16] = test system: Escherichia coli; test: Antimicrobial activity against Escherichia coli ATCC 8739 by broth dilution method; format: functional
# [17] = test system: Escherichia coli; test: Inhibition of Escherichia coli MurD ligase assessed as residual activity at 500 uM after 30 mins
# [18] = test system: Staphylococcus epidermidis; test: Antimicrobial activity against Staphylococcus epidermidis ATCC 12228 by broth dilution method; format: functional
# [19] = test system: Staphylococcus aureus; test: Antimicrobial activity against Staphylococcus aureus ATCC 25923 by broth dilution method; format: functional
# [20] = test system: Staphylococcus aureus; test: Antimicrobial activity against methicillin-resistant Staphylococcus aureus PL1 by broth dilution method; format: functional
# [21] = test system: Staphylococcus aureus; test: Antimicrobial activity against methicillin-resistant Staphylococcus aureus ATCC 43300 by broth dilution method; format: functional
# [22] = test system: Escherichia coli; test: Inhibition of Escherichia coli MurD ligase assessed as residual activity at 1 mM after 30 mins
# [23] = Inhibition of Escherichia coli MurD ligase assessed as addition of D-[3H]glu to UDP-N-acetyl-muramoyl-L-alanine after 30 mins
Structure (SMILES),MIC [1] [µg/mL],MIC [2] [µg/mL],MIC [3] [µg/mL],MIC [4] [µg/mL],MIC [5] [µg/mL],MIC [6] [µg/mL],MIC [7] [µg/mL],MIC [8] [µg/mL],MIC [9] [µg/mL],MIC [10] [µg/mL],MIC [11] [µg/mL],MIC [12] [µg/mL],MIC [13] [µg/mL],MIC [14] [µg/mL],MIC [15] [µg/mL],MIC [16] [µg/mL],MIC [18] [µg/mL],MIC [19] [µg/mL],MIC [20] [µg/mL],MIC [21] [µg/mL],other results
CCCCOc1ccc2cc(S(=O)(=O)Nc3ccc(O)cc3C(=O)O)ccc2c1,64,32,64,256,256,256,> 512,> 512,> 512,> 512,256,> 512,> 512,> 512,> 512,> 512,> 512,> 512,> 512,> 512,Activity [17]: 76%
N#Cc1ccc(COc2ccc3cc(S(=O)(=O)Nc4cc(C(=O)O)cc(C(=O)O)c4)ccc3c2)c(F)c1,> 512,> 512,> 512,> 512,> 512,> 512,> 512,> 512,> 512,> 512,> 512,> 512,> 512,> 512,> 512,> 512,> 512,> 512,> 512,> 512,Activity [22]: 2%; IC50 [23]: 50 µM; Ki [23]: 34 µM
CCCCOc1ccc2cc(S(=O)(=O)Nc3ccc(C(=O)O)cc3C(=O)O)ccc2c1,> 512,> 512,> 512,> 512,> 512,> 512,> 512,> 512,> 512,> 512,> 512,> 512,> 512,> 512,> 512,> 512,> 512,> 512,> 512,> 512,Activity [22]: 8%; IC50 [23]: 127 µM; Ki [23]: 87 µM
N#Cc1ccc(COc2ccc3cc(S(=O)(=O)N4CCC(C(=O)O)CC4)ccc3c2)c(F)c1,,,,,,,,,,,,,,,,,,,,,Activity [17]: 94%
N#Cc1ccc(COc2ccc3cc(S(=O)(=O)Nc4ccc(CC(=O)O)cc4)ccc3c2)c(F)c1,64,32,64,> 512,> 512,> 512,> 512,> 512,> 512,> 512,> 512,> 512,> 512,> 512,> 512,> 512,> 512,> 512,> 512,> 512,Activity [17]: 64%
N#Cc1ccc(COc2ccc3cc(S(=O)(=O)Nc4ccc(C(=O)O)cc4C(=O)O)ccc3c2)c(F)c1,> 512,> 512,> 512,> 512,> 512,> 512,> 512,> 512,> 512,> 512,> 512,> 512,> 512,> 512,> 512,> 512,> 512,> 512,> 512,> 512,Activity [22]: 0.79%; IC50 [23]: 8.4 µM; Ki [23]: 5.8 µM
CCCCOc1ccc2cc(S(=O)(=O)N[C@H]3CCCC[C@H]3C(=O)O)ccc2c1,64,64,64,64,256,256,512,64,32,32,> 512,> 512,> 512,> 512,> 512,> 512,256,256,128,128,Activity [22]: 93%
CCCCOc1ccc2cc(S(=O)(=O)Nc3ccc(CC(=O)O)cc3)ccc2c1,> 512,> 512,> 512,512,512,256,512,512,> 512,> 512,512,> 512,> 512,> 512,> 512,> 512,256,256,256,256,Activity [17]: 97%
